Assay: xn = mol fraction of the nth substance listed
Conditions: for viscosity / mass density / speed of sound: 102 kPa, Liquid; for viscosity: Concentric cylinders viscometry; for mass density: Vibrating tube method; for speed of sound: Frequency=3 MHz, Single path-length method; for surface tension liquid-gas: 295 K, Pendant drop shape

CC(CC(C)(C)C)CC(C)(C)CC(C)(C)C (stereo not given) [2,2,4,4,6,8,8-heptamethylnonane] + CCCCCCc1ccccc1
Conditions	mass density [kg/m3]	speed of sound [m/s]	viscosity [mPa·s]
253.15 K, x2 = 0.1015	816.6	–	11.82
253.15 K, x2 = 0.2005	822.2	–	10.18
253.15 K, x2 = 0.2999	828	–	9.04
253.15 K, x2 = 0.4001	834.5	–	7.96
253.15 K, x2 = 0.4996	841.5	–	7.08
253.15 K, x2 = 0.6	849.4	–	6.37
253.15 K, x2 = 0.6999	857.7	–	5.78
253.15 K, x2 = 0.8	867.1	–	5.3
253.15 K, x2 = 0.9	877.1	–	4.94
288.15 K, x2 = 0.1015	792.77	1311.3	–
288.15 K, x2 = 0.2005	798.05	1317.6	–
288.15 K, x2 = 0.2999	803.73	1324.6	–
288.15 K, x2 = 0.4001	810.02	1332	–
288.15 K, x2 = 0.4996	816.74	1340.4	–
288.15 K, x2 = 0.6	824.16	1349.4	–
288.15 K, x2 = 0.6999	832.36	1359.3	–
288.15 K, x2 = 0.8	841.37	1370	–
288.15 K, x2 = 0.9	851.27	1382.2	–
293.15 K, x2 = 0.1015	789.39	1292.1	3.37
293.15 K, x2 = 0.2005	794.63	1298.5	3.04
293.15 K, x2 = 0.2999	800.29	1305.4	2.75
293.15 K, x2 = 0.4001	806.56	1313	2.51
293.15 K, x2 = 0.4996	813.23	1321.1	2.3
293.15 K, x2 = 0.6	820.65	1330.2	2.12
293.15 K, x2 = 0.6999	828.75	1340.1	1.98
293.15 K, x2 = 0.8	837.7	1350.9	1.85
293.15 K, x2 = 0.9	847.55	1363	1.74
303.15 K, x2 = 0.1015	782.63	1254.4	2.68
303.15 K, x2 = 0.2005	787.8	1261.2	2.44
303.15 K, x2 = 0.2999	793.41	1267.7	2.23
303.15 K, x2 = 0.4001	799.59	1275.6	2.05
303.15 K, x2 = 0.4996	806.19	1283.4	1.89
303.15 K, x2 = 0.6	813.53	1292.4	1.78
303.15 K, x2 = 0.6999	821.53	1302.3	1.66
303.15 K, x2 = 0.8	830.36	1313.5	1.56
303.15 K, x2 = 0.9	840.1	1325.2	1.48
313.15 K, x2 = 0.1015	775.87	1217.8	2.19
313.15 K, x2 = 0.2005	780.97	1224.6	2
313.15 K, x2 = 0.2999	786.51	1231	1.84
313.15 K, x2 = 0.4001	792.62	1238.9	1.7
313.15 K, x2 = 0.4996	799.14	1246.6	1.58
313.15 K, x2 = 0.6	806.39	1255.5	1.49
313.15 K, x2 = 0.6999	814.29	1265.4	1.4
313.15 K, x2 = 0.8	823.01	1276.7	1.32
313.15 K, x2 = 0.9	832.64	1288.3	1.25
323.15 K, x2 = 0.1015	769.09	1181.9	1.82
323.15 K, x2 = 0.2005	774.12	1188.7	1.67
323.15 K, x2 = 0.2999	779.61	1195.1	1.55
323.15 K, x2 = 0.4001	785.63	1203	1.44
323.15 K, x2 = 0.4996	792.08	1210.5	1.37
323.15 K, x2 = 0.6	799.24	1219.5	1.28
323.15 K, x2 = 0.6999	807.04	1229.4	1.2
323.15 K, x2 = 0.8	815.65	1240.5	1.14
323.15 K, x2 = 0.9	825.16	1252	1.09
333.15 K, x2 = 0.1015	762.29	1147.1	1.53
333.15 K, x2 = 0.2005	767.25	1153.6	1.42
333.15 K, x2 = 0.2999	772.68	1160.3	1.32
333.15 K, x2 = 0.4001	778.62	1167.9	1.23
333.15 K, x2 = 0.4996	784.99	1175.5	1.18
333.15 K, x2 = 0.6	792.06	1184.4	1.11
333.15 K, x2 = 0.6999	799.77	1194.3	1.04
333.15 K, x2 = 0.8	808.26	1205.1	0.99
333.15 K, x2 = 0.9	817.65	1216.8	0.945

Conditions	surface tension liquid-gas [mN/m]
x2 = 0.1015	24.4
x2 = 0.2005	24.5
x2 = 0.2999	24.7
x2 = 0.4001	25.3
x2 = 0.4996	25.6
x2 = 0.6	25.8
x2 = 0.6999	26.5
x2 = 0.8	27.2
x2 = 0.9	27.9

CC(CC(C)(C)C)CC(C)(C)CC(C)(C)C (stereo not given) [2,2,4,4,6,8,8-heptamethylnonane] + CCCCc1ccccc1
Conditions	mass density [kg/m3]	speed of sound [m/s]	viscosity [mPa·s]
253.15 K, x2 = 0.1007	815.9	–	11.06
253.15 K, x2 = 0.2007	820.7	–	8.94
253.15 K, x2 = 0.3	826.1	–	7.29
253.15 K, x2 = 0.3999	832.1	–	5.97
253.15 K, x2 = 0.4998	838.8	–	4.93
253.15 K, x2 = 0.5997	846.5	–	4.12
253.15 K, x2 = 0.7001	855.7	–	3.46
253.15 K, x2 = 0.7998	865.8	–	2.96
253.15 K, x2 = 0.8992	878.5	–	2.59
288.15 K, x2 = 0.1007	791.93	1308.2	–
288.15 K, x2 = 0.2007	796.54	1311.6	–
288.15 K, x2 = 0.3	801.59	1315.6	–
288.15 K, x2 = 0.3999	807.31	1320.4	–
288.15 K, x2 = 0.4998	813.73	1325.5	–
288.15 K, x2 = 0.5997	820.89	1331.9	–
288.15 K, x2 = 0.7001	829.45	1339.5	–
288.15 K, x2 = 0.7998	839.17	1348.9	–
288.15 K, x2 = 0.8992	850.51	1359.8	–
293.15 K, x2 = 0.1007	788.54	1289.3	3.22
293.15 K, x2 = 0.2007	793.11	1292.7	2.77
293.15 K, x2 = 0.3	798.11	1296.6	2.41
293.15 K, x2 = 0.3999	803.78	1301.1	2.09
293.15 K, x2 = 0.4998	810.17	1306.3	1.83
293.15 K, x2 = 0.5997	817.24	1312.5	1.6
293.15 K, x2 = 0.7001	825.74	1320.1	1.41
293.15 K, x2 = 0.7998	835.37	1329.1	1.29
293.15 K, x2 = 0.8992	846.62	1340	1.15
303.15 K, x2 = 0.1007	781.75	1251.9	2.58
303.15 K, x2 = 0.2007	786.24	1255.2	2.25
303.15 K, x2 = 0.3	791.16	1258.9	1.97
303.15 K, x2 = 0.3999	796.72	1263.3	1.73
303.15 K, x2 = 0.4998	803	1268.3	1.55
303.15 K, x2 = 0.5997	809.95	1274.4	1.37
303.15 K, x2 = 0.7001	818.29	1281.9	1.21
303.15 K, x2 = 0.7998	827.77	1290.3	1.1
303.15 K, x2 = 0.8992	838.82	1300.9	0.993
313.15 K, x2 = 0.1007	774.96	1215.2	2.11
313.15 K, x2 = 0.2007	779.36	1218.4	1.86
313.15 K, x2 = 0.3	784.19	1222	1.64
313.15 K, x2 = 0.3999	789.65	1226.2	1.46
313.15 K, x2 = 0.4998	795.81	1231.1	1.3
313.15 K, x2 = 0.5997	802.64	1237	1.16
313.15 K, x2 = 0.7001	810.83	1244.2	1.03
313.15 K, x2 = 0.7998	820.15	1252.3	0.957
313.15 K, x2 = 0.8992	831.01	1262.7	0.855
323.15 K, x2 = 0.1007	768.15	1179.3	1.76
323.15 K, x2 = 0.2007	772.47	1182.3	1.56
323.15 K, x2 = 0.3	777.21	1185.8	1.39
323.15 K, x2 = 0.3999	782.56	1189.8	1.27
323.15 K, x2 = 0.4998	788.61	1194.5	1.14
323.15 K, x2 = 0.5997	795.31	1200.2	1.03
323.15 K, x2 = 0.7001	803.34	1207.2	0.92
323.15 K, x2 = 0.7998	812.49	1215.1	0.831
323.15 K, x2 = 0.8992	823.15	1225.2	0.754
333.15 K, x2 = 0.1007	761.33	1144.1	1.49
333.15 K, x2 = 0.2007	765.57	1147	1.33
333.15 K, x2 = 0.3	770.2	1150.3	1.2
333.15 K, x2 = 0.3999	775.45	1154.1	1.1
333.15 K, x2 = 0.4998	781.38	1158.8	1
333.15 K, x2 = 0.5997	787.95	1164.2	0.9
333.15 K, x2 = 0.7001	795.82	1170.9	0.812
333.15 K, x2 = 0.7998	804.8	1178.9	0.736
333.15 K, x2 = 0.8992	815.26	1188.7	0.67

Conditions	surface tension liquid-gas [mN/m]
x2 = 0.1007	24.3
x2 = 0.2007	24.6
x2 = 0.3	24.8
x2 = 0.3999	25.1
x2 = 0.4998	25.5
x2 = 0.5997	26
x2 = 0.7001	26.2
x2 = 0.7998	26.7
x2 = 0.8992	27.3
